Source: US20180353755A1, “EPIDURAL STIMULATION FOR FACILITATION OF LOCOMOTION, POSTURE, VOLUNTARY MOVEMENT, AND RECOVERY OF AUTONOMIC, SEXUAL, VASOMOTOR, AND COGNITIVE FUNCTION AFTER NEUROLOGICAL INJURY” (NeuroRecovery Technologies, Inc., priority 2014, published 2018)

Test system: rat with complete mid-thoracic spinal cord transection
Assay: Locomotor behavior of rats one week after complete mid-thoracic spinal cord transection, drug therapy with or without epidural stimulation (FIG. 1)
Assay type: in vivo
Details: one week post-injury; for Locomotor behavior, epidural stimulation in combination with a single drug: epidural stimulation simultaneously at L2 plus S1; for Locomotor behavior after administration of drug: no epidural stimulation
Description: FIG. 1 summarizes recent experiments in rats that were carried out to assess the effectiveness of epidural stimulation coupled with combined drug therapy in the treatment of complete spinal cord injuries. The combination of quipazine and 8-OHDPAT with simultaneous epidural stimulation at spinal sites L2 and S1 results in robust coordinated stepping as early as one week after a complete spinal cord transection. Locomotor behavior observed from a typical rat before the injury and one week after a complete mid-thoracic spinal cord transection. The amount of body weight support provided to the rat is shown in red. One week post-injury, no spontaneous stepping activity is observed. […] Sol, soleus; TA, tibialis anterior;MTP, metatarsal-phalangeal.
FIG. 1 summarizes experiments in rats that were carried out to assess the effectiveness of epidural stimulation coupled with combined drug therapy in acute treatment of complete spinal cord injury.

Structure (SMILES)	Locomotor behavior, epidural stimulation in combination with a single drug	Locomotor behavior after administration of drug
CCCN(CCC)C1CCc2cccc(O)c2C1 (stereo not shown) [8-OHDPAT]	enables plantar stepping	erratic movements
c1ccc2nc(N3CCNCC3)ccc2c1 [Quipazine]	enables plantar stepping	erratic movements
